Where two headings read alike, the source gives them in different places.
Columns and labels:
[1] = tested on: Swiss albino mice subjected to whole-body γ irradiation; test: Survival of mice subjected to whole-body γ irradiation (LD50/30); type: in vivo; details: 6 days after γ radiation (LD50/30), compounds administered orally, FIG. 2A
Excerpt: Swiss albino mice (male, 9-10 weeks old, 30-32 g) were obtained from Charles River Laboratories (Wilmington, MA). This strain is among the most common used in radiation studies (Williams 2010). Mice were fed with a nutritionally complete diet (standard diet, SD) before irradiation. This was A03 from Panlab (Barcelona, Spain), which has 3,200 kcal/kg and the following nutritional composition: crude protein, 23.5%; crude fat, 4.3%; crude fiber, 3.7%; and carbohydrates, 51.1%; vitamins and minerals were provided as in the NIH-7 open formula for rat and mouse. This diet meets the dietary allowances recommended for adult mice by the American Institute of Nutrition. The animals were fed ad libitum and kept in individual metabolic cages, in which body weight and food ingestion were monitored daily. The animal room was maintained at 22° C. on a 12 h light/12 h dark cycle. Ad libitum intake of drinking water was also allowed. Care of irradiated mice followed the recommendation of the Robert Wood Johnson Medical School (Piscataway, NJ) for mouse total body irradiation (policy 15), which includes: a) use of antibiotics in the drinking water (134 mg ampicillin/kg/day, 40 mg baytril/kg/day, and 220/42 mg sulfamethoxazole/trimethoprim/kg/day), b) making drinking water readily available, c) Napa nectar Systems Engineering Lab Group Inc., Napa, CA) provided on the bottom of the cage during the first 14 days and replaced daily, d) provision of softened food served in a small Petri dish on the cage floor, e) completely sterile environment (cage, food, and water) to avoid potential immunosuppression-associated infections. A free-standing wheel inside the cage was also included to facilitate the physical exercise of the animals. All experiments were started at 10.00 h to minimize possible circadian variations. Procedures involving animals were in compliance with international laws and policies (EEC Directive 86/609, OJ L 358. 1, Dec. 12, 1987; and NIH Guide for the Care and Use of Laboratory Animals, NIH Publ. No. 85-23, 1985). Mice were subjected to g-radiation (^137Cs) (total body irradiation, TBI) in a BIOBEAM 8000 (Gamma-Service Medical GmbH, Leipzig, Germany). Single fraction radiotherapy, at total doses ranging from approx. 5.0 to 10.0 Gy, was administered at a rate of approx. […]. The irradiation distance from the source was limited to 12 cm. Radiation dosimetry was controlled using alanine dosimeters from Bruker (Billerica, MA) with dosimetry variation of +/−0.09 Gy. […] NR (nicotinamide riboside, 3-aminocarbonyl-1-b-D-ribofuranosyl-pyridinium, Elysium Health, Inc., New York, NY) was dissolved in vaccination-grade water, and the pH of the solution neutralized (pH 7.0) before oral administration (185 mg/kg×day, Obrador 2020). FSL-1 (InvivoGen, San Diego, CA) was resuspended in sterile vaccination-grade water, and administered IP (0.25 mg/kg×day, the volume administered was of […] depending on the weight of the mouse, as recommended by Kurkjian 2017). Pharmaceutical grade amifostine (Ethyol) was obtained from Cumberland Pharmaceuticals (Nashville, TN) as 500 mg sterile lyophilized powder vial, and reconstituted with physiological saline prior to use.
First, the effects of γ radiation and mice survival were studied. […] Mice received whole-body γ radiation (one single dose; ^137Cs, 0.5-0.6 Gy/min; Biobeam 8000, GSM GmbH). One Gy=absorption of 1 J of energy/kg of matter.
Next, the thirty-days survival of mice treated with γ rays (LD50/30) and pterostilbene (PT) was analysed (FIG. 1B).

[2] = Plasma and extravascular levels of pterostilbene after oral administration; type: in vivo; details: mice, 200 mg Pter/kg b.w. oral
Protocol: Plasma and extravascular levels of pterostilbene after its oral administration to mice were studied. Mice were treated with 200 mg Pter/kg b.w. A group of 4-5 animals was sacrificed per each time point. Pter was dissolved in 2-hydroxypropyl-b-cyclodextrin, then suspended in 0.3% carboxymethylcellulose. Nondetectable=n.d. * P<0.1 comparing data obtained at 10-1440 min versus those found at 5 min.

[3] = PT, SIL and NAD+ levels in circulating blood; details: treated and irradiated mice, FIG. 10A
Protocol: Briefly, samples were analyzed through HPLC (Ultimate 3000, Thermo Fisher Scientific) and MS/MS (Waters TQ detector triple quadrupole) systems on a Hypurity™ C18 column (50×4.6 mm) using an injection volume of 5 μL. The mobile phases consisted of water (A) and acetonitrile (B). […] MS/MS data acquisition was performed under negative electrospray ionization mode. […] The fragmentary voltage was 150 V, and the collision energy 15 eV. Tissue sample preparation was as described for determination of PTER levels (above).
Whole-blood samples (0.5 ml) were collected in sodium citrate tubes at 4° C. Then a whole-blood aliquot of 0.1 ml was transferred to a cryovial containing 0.9 ml of 0.5 M ice-cold perchloric acid to lyse all blood cells. Samples were centrifuged at 10,000 g×10 min (4° C.). Supernatants were stored at −80° C. until analyzed.

[4] = tested on: Swiss albino mice subjected to whole-body γ irradiation; test: Survival of mice subjected to whole-body γ irradiation (LD50/30); type: in vivo; details: dose of 100 mg/kg, orally once per day, 5 days before and 2 days after γ irradiation (7.2 Gy), FIG. 1B
[5] = background statement; cited from earlier work
[6] = Swiss albino, mouse, brain, 200 mg/kg b.w., read-out: Pter in Brain
[7] = Swiss albino, mouse, kidney, 200 mg/kg b.w., read-out: Pter in Kidney
[8] = Swiss albino, mouse, liver, 200 mg/kg b.w., read-out: Pter in Liver
[9] = Swiss albino, mouse, lung, 200 mg/kg b.w., read-out: Pter in Lung
[10] = Swiss albino, mouse, plasma, 200 mg/kg b.w., read-out: Pter in Plasma

Question: For `COc1cc(/C=C/c2ccc(O)cc2)cc(OC)c1` [PT, 3,5-dimethoxy-4′-hydroxystilbene], which survival [1] is on record?
Answer: The survival was “around 100%”.

Question: What about the concentration at 5 min [2, 6] of the same compound?
Answer: The concentration at 5 min was 2 ± 1 µM.

Question: What about the concentration at 10 min [2, 6] of the same compound?
Answer: The concentration at 10 min was 6 ± 2 µM.

Question: What about the concentration at 30 min [2, 6] of the same compound?
Answer: The concentration at 30 min was 10 ± 3 µM.

Question: And the concentration at 60 min [2, 6]?
Answer: The concentration at 60 min was 24 ± 7 µM.

Question: What about the concentration at 120 min [2, 6] of the same compound?
Answer: Its concentration at 120 min is 14 ± 4 µM.

Question: And the concentration at 240 min [2, 6]?
Answer: The concentration at 240 min was 8 ± 3 µM.

Question: What about the concentration at 480 min [2, 6] of the same compound?
Answer: Its concentration at 480 min is 3 ± 1 µM.

Question: And the concentration at 5 min [2, 7]?
Answer: The concentration at 5 min was 1 ± 0.5 µM.

Question: What about the concentration at 10 min [2, 7] of the same compound?
Answer: The concentration at 10 min was 4 ± 2 µM.

Question: What about the concentration at 30 min [2, 7] of the same compound?
Answer: Its concentration at 30 min is 6 ± 3 µM.

Question: What about the concentration at 60 min [2, 7] of the same compound?
Answer: The concentration at 60 min was 10 ± 4 µM.

Question: And the concentration at 120 min [2, 7]?
Answer: The concentration at 120 min was 8 ± 2 µM.

Question: What about the concentration at 240 min [2, 7] of the same compound?
Answer: Its concentration at 240 min is 2 ± 0.5 µM.

Question: What about the concentration at 5 min [2, 8] of the same compound?
Answer: Its concentration at 5 min is 3 ± 1 µM.

Question: What about the concentration at 10 min [2, 8] of the same compound?
Answer: The concentration at 10 min was 8 ± 3 µM.

Question: What about the concentration at 30 min [2, 8] of the same compound?
Answer: Its concentration at 30 min is 11 ± 3 µM.

Question: And the concentration at 60 min [2, 8]?
Answer: Its concentration at 60 min is 17 ± 5 µM.

Question: And the concentration at 120 min [2, 8]?
Answer: Its concentration at 120 min is 12 ± 4 µM.

Question: And the concentration at 240 min [2, 8]?
Answer: The concentration at 240 min was 7 ± 2 µM.

Question: And the concentration at 480 min [2, 8]?
Answer: The concentration at 480 min was 1 ± 0.5 µM.

Question: What about the concentration at 5 min [2, 9] of the same compound?
Answer: The concentration at 5 min was 7 ± 2 µM.

Question: What about the concentration at 10 min [2, 9] of the same compound?
Answer: Its concentration at 10 min is 15 ± 6 µM.

Question: And the concentration at 30 min [2, 9]?
Answer: The concentration at 30 min was 23 ± 5 µM.

Question: What about the concentration at 60 min [2, 9] of the same compound?
Answer: The concentration at 60 min was 35 ± 8 µM.

Question: What about the concentration at 120 min [2, 9] of the same compound?
Answer: The concentration at 120 min was 21 ± 4 µM.

Question: And the concentration at 240 min [2, 9]?
Answer: Its concentration at 240 min is 12 ± 3 µM.

Question: What about the concentration at 480 min [2, 9] of the same compound?
Answer: The concentration at 480 min was 2 ± 1 µM.

Question: And the concentration at 5 min [2, 10]?
Answer: The concentration at 5 min was 5 ± 2 µM.

Question: And the concentration at 10 min [2, 10]?
Answer: The concentration at 10 min was 18 ± 4 µM.

Question: And the concentration at 30 min [2, 10]?
Answer: The concentration at 30 min was 55 ± 9 µM.

Question: What about the concentration at 60 min [2, 10] of the same compound?
Answer: Its concentration at 60 min is 98 ± 17 µM.

Question: What about the concentration at 120 min [2, 10] of the same compound?
Answer: The concentration at 120 min was 46 ± 12 µM.

Question: And the concentration at 240 min [2, 10]?
Answer: The concentration at 240 min was 21 ± 6 µM.

Question: And the concentration at 480 min [2, 10]?
Answer: Its concentration at 480 min is 14 ± 5 µM.

Question: What about the concentration at 720 min ([2]; Swiss albino, mouse, plasma, 200 mg/kg b.w., 720 min) of the same compound?
Answer: The concentration at 720 min was 1 ± 0.5 µM.

Question: What about the “time after administration at which Pterostilbene levels peak” value ([2]; all tissues studied) of the same compound?
Answer: Its value is 60 min.

Question: And the “PT levels in circulating blood, 30 min vs 120 min” value [3]?
Answer: The value was “higher 30 min after”.

Question: And the “effect on improving survival (60 days) among doses” value [4]?
Answer: Its value is “best effect on improving survival”.

Question: What about the “potency as antifungal agent relative to Resveratrol” value [5] of the same compound?
Answer: Its value is 60-100 times.

From patent US20250275940A1, “PTEROSTILBENE AND SILIBININ FOR PREVENTING, AMELIORATING OR REDUCING RADIATION-INDUCED DISEASES” (UNIVERSITAT DE VALÈNCIA, priority 2021, published 2025)
